Measurements as given in PubChem BioAssay AID1963842 (Molecular Pharmacology Branch, DTP, NCI, 2024).
pIC50: −log10 of the molar value.

Test system: 677734-321-R-J1-PDC complex spheroid viability
Assay: Anticancer human tumor 677734-321-R-J1-PDC patient-derived soft tissue sarcoma cell line growth inhibition [POLQ]
Conditions: for pIC50: curve of first compound; for viability, T/C: stronger effect = lower value
Procedure, shortened: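 Growth inhibition in 3D: complex spheroids (tumor PDC, HUVEC, MSC) treated with POLQ inhibitor combinations; where Cmax unknown, highest tested concentration 10 microM, except SN-38 at 1 microM.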

[1] = second compound 0.0316 µM, first compound 0.0316 µM
[2] = second compound 0.0316 µM, first compound 0.1 µM
[3] = second compound 0.0316 µM, first compound 0.316 µM
[4] = second compound 0.0316 µM, first compound 1 µM
[5] = second compound 0.0316 µM, first compound 3.16 µM
[6] = second compound 0.0316 µM, first compound 10 µM
[7] = second compound 0.1 µM, first compound 0.0316 µM
[8] = second compound 0.1 µM, first compound 0.1 µM
[9] = second compound 0.1 µM, first compound 0.316 µM
[10] = second compound 0.1 µM, first compound 1 µM
[11] = second compound 0.1 µM, first compound 3.16 µM
[12] = second compound 0.1 µM, first compound 10 µM
[13] = second compound 0.316 µM, first compound 0.0316 µM
[14] = second compound 0.316 µM, first compound 0.1 µM
[15] = second compound 0.316 µM, first compound 0.316 µM
[16] = second compound 0.316 µM, first compound 1 µM
[17] = second compound 0.316 µM, first compound 3.16 µM
[18] = second compound 0.316 µM, first compound 10 µM
[19] = second compound 1 µM, first compound 0.0316 µM
[20] = second compound 1 µM, first compound 0.1 µM
[21] = second compound 1 µM, first compound 0.316 µM
[22] = second compound 1 µM, first compound 1 µM
[23] = second compound 1 µM, first compound 3.16 µM
[24] = second compound 1 µM, first compound 10 µM
[25] = second compound 3.16 µM, first compound 0.0316 µM
[26] = second compound 3.16 µM, first compound 0.1 µM
[27] = second compound 3.16 µM, first compound 0.316 µM
[28] = second compound 3.16 µM, first compound 1 µM
[29] = second compound 3.16 µM, first compound 3.16 µM
[30] = second compound 3.16 µM, first compound 10 µM
[31] = second compound 10 µM, first compound 0.0316 µM
[32] = second compound 10 µM, first compound 0.1 µM
[33] = second compound 10 µM, first compound 0.316 µM
[34] = second compound 10 µM, first compound 1 µM
[35] = second compound 10 µM, first compound 3.16 µM
[36] = second compound 10 µM, first compound 10 µM
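Note: spheroids exposed to compounds for one week.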
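Throughout, for viability, T/C: 100% = vehicle DMSO treated spheroids.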

With `CCc1cc2c(N3CCc4c(cc(Cn5ccnc5)cc4-c4cn(C)nc4C(F)(F)F)C3=O)cc(C)nc2c(OC)n1` + Cc1cccc(N(C)C(=O)C2C(O)CCN2c2nc(C)cc(C(F)(F)F)c2C#N)c1 as the compound, how does the pIC50 (second compound 0.0316 µM) read?
Its pIC50 is 5.19.

What about the pIC50 (second compound 0.1 µM) of the same compound?
Its pIC50 is 5.27.

And the pIC50 (second compound 0.316 µM)?
The pIC50 was 5.37.

What about the pIC50 (second compound 1 µM) of the same compound?
Its pIC50 is 5.29.

And the pIC50 (second compound 3.16 µM)?
The pIC50 was 5.44.

And the pIC50 (second compound 10 µM)?
Its pIC50 is 5.64.

And the viability, T/C [1]?
The viability, T/C was 104%.

What about the viability, T/C [2] of the same compound?
Its viability, T/C is 116%.

What about the viability, T/C [3] of the same compound?
Its viability, T/C is 84%.

What about the viability, T/C [4] of the same compound?
Its viability, T/C is 94%.

What about the viability, T/C [5] of the same compound?
The viability, T/C was 65.5%.

And the viability, T/C [6]?
Its viability, T/C is 39.3%.

What about the viability, T/C [7] of the same compound?
Its viability, T/C is 97.3%.

And the viability, T/C [8]?
Its viability, T/C is 94.7%.

What about the viability, T/C [9] of the same compound?
Its viability, T/C is 99.7%.

What about the viability, T/C [10] of the same compound?
The viability, T/C was 75.6%.

What about the viability, T/C [11] of the same compound?
The viability, T/C was 66.3%.

What about the viability, T/C [12] of the same compound?
Its viability, T/C is 33.1%.

What about the viability, T/C [13] of the same compound?
The viability, T/C was 92.4%.

And the viability, T/C [14]?
Its viability, T/C is 102%.

And the viability, T/C [15]?
The viability, T/C was 98.8%.

And the viability, T/C [16]?
The viability, T/C was 81.8%.

What about the viability, T/C [17] of the same compound?
Its viability, T/C is 58.8%.

What about the viability, T/C [18] of the same compound?
Its viability, T/C is 28.5%.

And the viability, T/C [19]?
Its viability, T/C is 111%.

And the viability, T/C [20]?
The viability, T/C was 106%.

And the viability, T/C [21]?
The viability, T/C was 92.2%.

What about the viability, T/C [22] of the same compound?
Its viability, T/C is 88.1%.

What about the viability, T/C [23] of the same compound?
The viability, T/C was 62.7%.

And the viability, T/C [24]?
Its viability, T/C is 31.6%.

What about the viability, T/C [25] of the same compound?
Its viability, T/C is 101%.

What about the viability, T/C [26] of the same compound?
The viability, T/C was 98.6%.

What about the viability, T/C [27] of the same compound?
The viability, T/C was 94%.

What about the viability, T/C [28] of the same compound?
Its viability, T/C is 82.3%.

And the viability, T/C [29]?
The viability, T/C was 52.1%.

What about the viability, T/C [30] of the same compound?
Its viability, T/C is 31.8%.

And the viability, T/C [31]?
The viability, T/C was 92.5%.

And the viability, T/C [32]?
Its viability, T/C is 76.1%.

What about the viability, T/C [33] of the same compound?
Its viability, T/C is 70.4%.

And the viability, T/C [34]?
The viability, T/C was 58.4%.

What about the viability, T/C [35] of the same compound?
The viability, T/C was 48.1%.

What about the viability, T/C [36] of the same compound?
The viability, T/C was 34.1%.

`CCc1cc2c(N3CCc4c(cc(Cn5ccnc5)cc4-c4cn(C)nc4C(F)(F)F)C3=O)ccnc2c(OC)n1` + Cc1cccc(N(C)C(=O)C2C(O)CCN2c2nc(C)cc(C(F)(F)F)c2C#N)c1 was tested. Which pIC50 (second compound 0.0316 µM) did it give?
The pIC50 was < 5.00.

And the pIC50 (second compound 0.1 µM)?
The pIC50 was 5.04.

And the pIC50 (second compound 0.316 µM)?
Its pIC50 is 5.28.

What about the pIC50 (second compound 1 µM) of the same compound?
Its pIC50 is 5.14.

What about the pIC50 (second compound 3.16 µM) of the same compound?
Its pIC50 is 5.31.

And the pIC50 (second compound 10 µM)?
Its pIC50 is 5.70.

And the viability, T/C [1]?
The viability, T/C was 104%.

What about the viability, T/C [2] of the same compound?
Its viability, T/C is 94.4%.

What about the viability, T/C [3] of the same compound?
The viability, T/C was 86.5%.

And the viability, T/C [4]?
The viability, T/C was 96.9%.

And the viability, T/C [5]?
The viability, T/C was 60.5%.

What about the viability, T/C [6] of the same compound?
The viability, T/C was 58.8%.

What about the viability, T/C [7] of the same compound?
Its viability, T/C is 113%.

What about the viability, T/C [8] of the same compound?
Its viability, T/C is 104%.

What about the viability, T/C [9] of the same compound?
The viability, T/C was 99.4%.

And the viability, T/C [10]?
Its viability, T/C is 84%.

What about the viability, T/C [11] of the same compound?
Its viability, T/C is 59.7%.

And the viability, T/C [12]?
Its viability, T/C is 49.7%.

And the viability, T/C [13]?
The viability, T/C was 100%.

What about the viability, T/C [14] of the same compound?
The viability, T/C was 110%.

What about the viability, T/C [15] of the same compound?
The viability, T/C was 92.3%.

And the viability, T/C [16]?
The viability, T/C was 85.8%.

And the viability, T/C [17]?
Its viability, T/C is 59.8%.

And the viability, T/C [18]?
Its viability, T/C is 36.5%.

And the viability, T/C [19]?
Its viability, T/C is 94.7%.

And the viability, T/C [20]?
Its viability, T/C is 79%.

And the viability, T/C [21]?
The viability, T/C was 100%.

And the viability, T/C [22]?
The viability, T/C was 77.8%.

What about the viability, T/C [23] of the same compound?
The viability, T/C was 75.1%.

And the viability, T/C [24]?
Its viability, T/C is 40.2%.

What about the viability, T/C [25] of the same compound?
Its viability, T/C is 110%.

And the viability, T/C [26]?
Its viability, T/C is 79.9%.

What about the viability, T/C [27] of the same compound?
Its viability, T/C is 93.2%.

And the viability, T/C [28]?
The viability, T/C was 76.1%.

And the viability, T/C [29]?
The viability, T/C was 64.6%.

What about the viability, T/C [30] of the same compound?
The viability, T/C was 31.6%.

And the viability, T/C [31]?
Its viability, T/C is 87.9%.

What about the viability, T/C [32] of the same compound?
Its viability, T/C is 67.9%.

And the viability, T/C [33]?
Its viability, T/C is 60.5%.

And the viability, T/C [34]?
The viability, T/C was 65.8%.

And the viability, T/C [35]?
The viability, T/C was 46.3%.

What about the viability, T/C [36] of the same compound?
The viability, T/C was 30.5%.
